Data on three molecules can be found in US11903925B2, “Compositions for preventing and treating pulmonary injury due to ionizing radiation or cytotoxic drugs” (RepoCeuticals A/S, priority 2015, dated 2024).

Series [1] in a line: Stability (suitability for use in a pharmaceutical composition). Particulars: hence unsuitable for use in a pharmaceutical composition.
The nature of series [2]: Solubility of melatonin in water / aqueous solution. Type of series: physicochemical. Particulars: straightforward attempts at dissolving melatonin in water. How it is done:
The pharmaceutical composition of the present invention may be in the form of a powder, solution, emulsion, suspension, or micellar, microsphere, microcapsular, nanoparticulate or liposomal preparation. Melatonin and most of its analogues, derivatives and metabolites are only sparingly soluble in water, straightforward attempts at dissolving melatonin in water yielding a maximum melatonin concentration of only 0.1 mg/mL. Higher concentrations of melatonin are needed if aqueous preparations of melatonin are to be administered in a convenient manner, e.g. by the inhalation of an aerosol of the preparation, to the airways epithelium at the concentrations estimated to be necessary to exert a protective action against free radical damage. A method of achieving this is outlined below.
A further formulation is to supply the composition as a dry powder as described above in a capped vial, to be reconstituted as a solution for nebulization by adding a given volume of sterile water from a second vial, to be used within one hour. The water for dissolving the formulation may contain the empirically determined amount of salts and buffering ions to produce a solution of the composition that has a near-physiological pH and osmolarity with reference to plasma to avoid the provocation of cough and bronchoconstriction on inhalation. […]

A further series has as its system lung. Particulars: use of cytotoxic chemotherapeutic agents for cancer; cited from earlier work.

In the case of `COc1ccc(N)c(C(=O)CCNC(C)=O)c1` [N^1-acetyl-5-methoxykynuramine], the stability result in series [1] is “unstable”. Regarding `COc1ccc2[nH]cc(CCNC(C)=O)c2c1` [melatonin, N-acetyl-5-methoxytryptamine], the “maximum melatonin concentration in water” value in series [2] was 0.1 mg/mL. As to Bleomycin, the “overall rate of pulmonary damage” value in the series on lung is recorded as “over 40%”.
